The source made the active and inactive calls.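 How the source made its calls: active means inhibition of binding above 0%; inactive means the rest.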

The record followed here is PubChem BioAssay AID624333 (NMMLSC, 2012).

This test has as its system anti-Dsg3 scFv antibody binding to human desmoglein-3. In words: inhibitors of pemphigus antibody-Dsg3 interaction – biochemical, ELISA, orthogonal assay for pemphigus antibody inhibitor project, confirmation (AID 624333). To be noted: OD, at 200 µM, active compounds read high. Background: ELISA stands for enzyme-linked immunosorbent assay.
For the molecule `NS(=O)(=O)c1ccc(NC(=O)c2cc(-c3cccs3)nc3ccccc23)cc1`, the inhibition of binding is -18% (inactive).
In the case of `OCc1cn(-c2ccccc2)nc1-c1ccc(-c2nn(-c3ccccc3)cc2CO)cc1` it was -14% (inactive); in that of `CSc1ccccc1OCc1cc(C(=O)NCCC2=CCCCC2)no1`, -14% (inactive); in that of `COc1ccccc1NC(=O)Cn1nnc(-c2ccccc2NC(=O)c2cc3ccccc3oc2=O)n1`, -32% (inactive).
Next, `Cc1ccc(C(C)C)c(OCC(=O)Nc2ccc(N3CCN(S(C)(=O)=O)CC3)cc2)c1`: -19% (inactive); `Cc1c(C(=O)Nc2ccc(OCc3ccccc3)cc2)cccc1[N+](=O)[O-]`: -33% (inactive); `COc1cc(OC)cc(N(C(=O)C2COc3ccccc3O2)C(C(=O)NC2CCCCC2)c2ccc(O)cc2)c1` (centres undefined): -3% (inactive).
Next, `CC(C)OC(=O)CSc1nc2c(cc1C#N)CCCCC2`: -2% (inactive).
For `Cn1c(SCC(=O)NC2CCCCC2)nnc1-c1cc2cc(Cl)ccc2o1`, the inhibition of binding was 0% (inactive).
In the case of `CC(=O)Nc1ccc(-c2cc(-c3ccccc3)nc(-c3ccccc3)n2)cc1` it was 5%; in that of `CCOc1ccccc1NCc1cc(=O)oc2cc(C)c(O)cc12`, -4% (inactive); in that of `Cc1cc(SCC(=O)Nc2ccc3[nH]c(=O)[nH]c3c2)nc2ccccc12`, 8%.
Next, `CCc1ccc(OCC(=O)Nc2ccc(N3CCN(C(=O)c4ccccc4)CC3)cc2)cc1`: -5% (inactive).
In the case of `COc1ccc(OC)c(NC(=O)c2nc(-c3ccccc3)oc2C)c1` it was -2% (inactive).
